The values that follow come from patent publication US10526311B2 (ASTEX THERAPEUTICS LIMITED, priority 2015, dated 2020).

The subject of assay [1] is SN40R2 (MDM2 amplified, p53 mutated osteosarcoma). Nature of the assay: Protocol A: SN40R2 growth inhibition (SRB). The settings on record: 72 h.
Description: Protocol A: SJSA-1 and SN40R2 Assays
(§1) Following incubation with the SRB dye at room temperature for 30 min, the plates were washed with 1% acetic acid and left to dry. […] The GI50 was calculated by non-linear regression analysis of the data using Prism v4.0 statistical software.
Assay [2] deals with MDM2-p53 interaction (in vitro translated MDM2, biotinylated IP3 peptide) (Homo sapiens, UniProt Q00987). Nature of the assay: MDM2-p53 interaction 96-well plate binding assay (ELISA). For orientation: ELISA stands for enzyme-linked immunosorbent assay.
Chain of MDM2-p53 interaction (in vitro translated MDM2, biotinylated IP3 peptide) (Q00987 whole entry): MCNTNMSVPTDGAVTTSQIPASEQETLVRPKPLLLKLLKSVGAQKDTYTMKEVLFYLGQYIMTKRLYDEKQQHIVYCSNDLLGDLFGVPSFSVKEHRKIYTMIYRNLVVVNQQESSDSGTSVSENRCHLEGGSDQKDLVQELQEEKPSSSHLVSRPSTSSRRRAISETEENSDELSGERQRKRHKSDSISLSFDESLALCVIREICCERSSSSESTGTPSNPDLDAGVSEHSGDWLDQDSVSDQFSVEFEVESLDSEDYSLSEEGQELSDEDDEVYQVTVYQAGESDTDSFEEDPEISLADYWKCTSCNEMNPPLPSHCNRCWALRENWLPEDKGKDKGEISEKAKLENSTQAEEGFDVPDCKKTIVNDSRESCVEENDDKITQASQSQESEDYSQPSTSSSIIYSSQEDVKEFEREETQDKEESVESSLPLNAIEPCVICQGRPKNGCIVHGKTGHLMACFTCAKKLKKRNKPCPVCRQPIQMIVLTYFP
Description: The ELISA assay was performed in streptavidin coated plates which were preincubated with 200 μl per well of 1 μg ml^−1 biotinylated IP3 peptide. The plates were ready to use for MDM2 binding after washing the plate with PBS.
The unbound secondary antibody was removed by washing three times with TBS-Tween. The bound HRP activity was measured by enhanced chemiluminesence (ECL™, Amersham Biosciences) using the oxidation of the diacylhydrazide substrate, luminol, to generate a quantifiable light signal. The percentage of MDM2 inhibition at a given concentration is calculated as the [1−(RLU detected in the compound treated sample−RLU negative DMSO control)÷(RLU of DMSO positive and negative controls)]×100 or as the (RLU detected in the compound treated sample÷RLU of DMSO controls)×100. The IC50 was calculated using a plot of % MDM2 inhibition vs concentration and is the average of two or three independent experiments.
Assay [3] concerns SJSA-1 (MDM2 amplified, p53 wild-type osteosarcoma). Nature of the assay: Protocol A: SJSA-1 growth inhibition (SRB). The settings on record: Homo sapiens, SJSA-1, 72 h.
Description: Protocol A: SJSA-1 and SN40R2 Assays
as §1
For a further assay, the system named is SJSA-1. Nature of the assay: Protocol B: SJSA-1 CellTiter-Glo cell viability. For orientation: In ATP-based viability assays light output follows the ATP content of the culture.
Setting [4] is: read-out: SJSA-1 IC50 (μM) (Protocol A), SJSA-1, Protocol A (SRB), 72 hrs.
[5] abbreviates: read-out: SN40R2 IC50 (μM) (Protocol A).
[6] abbreviates: Homo sapiens, SJSA-1, 72 h, read-out: SJSA1 IC50 (μM) (Protocol B), SJSA-1, Protocol B (CellTiter-Glo), 72 hrs.
[7] abbreviates: read-out: SJSA1 IC50 (μM) (Protocol B), SJSA-1, Protocol B (CellTiter-Glo), 72 hrs.

For orientation: IC50 means the concentration that gives 50% inhibition.

Like-named read-outs stand apart in the source and are kept apart here.

With `CO[C@]1(c2ccc(Cl)cc2)c2ccc(C(C)(O)CN3CCOCC3=O)cc2C(=O)N1Cc1ccc(Cl)cn1` (single isomer, unassigned) [Example 328], the IC50 in assay [1] (read-out: SN40R2 IC50 (Protocol A)) turned out to be 25 µM. Also, the inhibition at 0.1 µM in assay [2] (@ 0.10 μM, read-out: MDM2 % @ concentration) was found to be 42%.
Turning to `CO[C@]1(c2ccc(Cl)cc2)c2ccc(C(C)(O)CN3CC(=O)NC3=O)cc2C(=O)N1Cc1ccc(Cl)cn1` (single isomer, unassigned) [Example 329], in assay [1] (read-out: SN40R2 (Protocol A) % at concentration), the inhibition at 30 µM was determined as 8%. In addition, the “MDM2 % @ concentration” value in assay [2] (@ 0.30 μM) is 61% @ 0.30.
For the compound `CCC(O)(c1cc(F)c2c(c1)C(=O)N(Cc1ccc(C#N)cn1)[C@@]2(O[C@H]1CCOC1)c1ccc(Cl)cc1)c1ccn(C)n1` (single isomer, unassigned) [Example 336], the values for the IC50 in assay [3] (setting [4]) and in assay [1] (setting [5]) were 0.1 µM and 42 µM, respectively.
For the compound `CCC(O)(c1cc(F)c2c(c1)C(=O)N(Cc1ncc(Cl)cc1O)[C@@]2(OCCO)c1ccc(Cl)cc1)c1cn(C)cn1` (single isomer, unassigned) [Example 443], the figures for the IC50 (in the assay with SJSA-1 (setting [6]); in assay [1] (setting [5])) were 0.093 µM and 38 µM, respectively.
As for `CCC(O)(c1cc(F)c2c(c1)C(=O)N(Cc1ccc(C#N)cn1)[C@@]2(O[C@H]1CCOC1)c1ccc(Cl)cc1)C1(F)CCOCC1` (single isomer, unassigned) [Example 446], the IC50 in the assay with SJSA-1 (setting [7]) came to 0.023 µM; in assay [1] (setting [5]), 29 µM. The “MDM2 % @ concentration” value in assay [2] (@ 0.0010 μM) is reported as 76% @ 0.0010.
Take `CCC(O)(c1cc(F)c2c(c1)C(=O)N(Cc1ncc(Cl)cn1)[C@@]2(O[C@H]1CCOC1)c1ccc(Cl)cc1)C1CCN(C)CC1` (single isomer, unassigned) [Example 449]: the IC50 in assay [3] (setting [4]) amounted to 0.041 µM; in the assay with SJSA-1 (setting [6]), 0.012 µM; in assay [1] (setting [5]), 18 µM.
The like results for `CCC(O)(c1cc(F)c2c(c1)C(=O)N(Cc1ncc(Cl)cc1O)[C@@]2(O[C@H]1C[C@@H](O)C1)c1ccc(Cl)cc1)c1cn(C)cn1` (single isomer, unassigned) [Example 487] were, in that order, 0.12 µM, 0.025 µM and 27 µM.
For `CCC(O)(c1cc(F)c2c(c1)C(=O)N(Cc1ccc(C#N)cn1)[C@@]2(OC[C@@H](C)O)c1ccc(Cl)cc1)C1(F)CCOCC1` (single isomer, unassigned) [Example 497], the figures for the IC50 (in assay [3] (setting [4]); in the assay on SJSA-1 (setting [6]); in assay [1] (setting [5])) were 0.039 µM, 0.046 µM and 45 µM, respectively.
On to `CCC(O)(c1cc(F)c2c(c1)C(=O)N(Cc1ccc(C#N)cn1)[C@@]2(O[C@H]1C[C@@H](O)C1)c1ccc(Cl)cc1)[C@H]1CC[C@H](O)CC1` (single isomer, unassigned) [Example 518], for which the results for the IC50 (in assay [3] (setting [4]); with SJSA-1 (setting [7])) were 0.058 µM and 0.065 µM, respectively. Also, the inhibition at 0.001 µM in assay [2] (@ 0.0010 μM, read-out: MDM2 % @ concentration) amounted to 79%.
For `CCC(O)(c1cc(F)c2c(c1)C(=O)N(Cc1ccc(C#N)cn1)[C@@]2(OC)c1ccc(Cl)cc1)[C@H]1CC[C@H](O)CC1` (single isomer, unassigned) [Example 521], the IC50 in assay [3] (setting [4]) is 0.035 µM; in the assay with SJSA-1 (setting [6]), 0.033 µM; in assay [1] (setting [5]), 37 µM.
With `CCC(O)(c1cc(F)c2c(c1)C(=O)N(Cc1ncc(Cl)cn1)[C@@]2(OC)c1ccc(Cl)cc1)C1(F)CCNCC1` (single isomer, unassigned) [Example 544], the values for the IC50 (in assay [3] (setting [4]); with SJSA-1 (setting [6]); in assay [1] (setting [5])) were 0.032 µM, 0.041 µM and 7.4 µM, respectively.
With `CCC(O)(c1cc(F)c2c(c1)C(=O)N(Cc1ccc(Cl)cn1)[C@@]2(O[C@H]1CCOC1)c1ccc(Cl)cc1)C1(F)CCNCC1` (single isomer, unassigned) [Example 548], the IC50 is 0.14 µM in assay [3] (setting [4]), 0.17 µM in the assay on SJSA-1 (setting [6]) and 6.3 µM in assay [1] (setting [5]).
For `CCC(O)(c1cc(F)c2c(c1)C(=O)N(Cc1ncc(Cl)cn1)[C@@]2(OC)c1ccc(Cl)cc1)C1(F)CCN(C2COC2)CC1` (single isomer, unassigned) [Example 552], in that order: 0.028 µM, 0.02 µM and 21 µM.
The like results for `CN1CCC(C(C)(O)c2cc(F)c3c(c2)C(=O)N(Cc2ncc(Cl)cn2)[C@@]3(OCC2(F)COC2)c2ccc(Cl)cc2)CC1` (single isomer, unassigned) [Example 558] were, in that order, 0.22 µM, 0.082 µM and 35 µM.
As for `CCC(O)(c1cc(F)c2c(c1)C(=O)N(Cc1ncc(C#N)cn1)[C@@]2(O[C@H]1CCOC1)c1ccc(Cl)cc1)C1(F)CCN(C)CC1` (single isomer, unassigned) [Example 561], the IC50 came to 0.021 µM in assay [3] (setting [4]), 0.065 µM in the assay with SJSA-1 (setting [6]) and 26 µM in assay [1] (setting [5]).
`CCC(O)(c1cc(F)c2c(c1)C(=O)N(Cc1ncc(Cl)cn1)[C@@]2(OC)c1ccc(Cl)cc1)C1(F)CCN(C)CC1` (single isomer, unassigned) [Example 563]: the IC50 in the assay on SJSA-1 (setting [6]) is 0.027 µM; in assay [1] (setting [5]), 15 µM.
For `CCC(O)(c1cc(F)c2c(c1)C(=O)N(Cc1ncc(Cl)cn1)[C@@]2(OCC1(C#N)CC1)c1ccc(Cl)cc1)C1(F)CCN(C)CC1` (single isomer, unassigned) [Example 564], in that order: 0.00038 µM and 16 µM.
For `CCC(O)(c1cc(F)c2c(c1)C(=O)N(Cc1ncc(Cl)cn1)[C@@]2(OCCO)c1ccc(Cl)cc1)C1(F)CCN(C)CC1` (single isomer, unassigned) [Example 565], the IC50 amounted to 0.045 µM in assay [3] (setting [4]), 0.035 µM in the assay with SJSA-1 (setting [6]) and 33 µM in assay [1] (setting [5]).
For `CCC(O)(c1cc(F)c2c(c1)C(=O)N(Cc1ncc(Cl)cn1)[C@@]2(O[C@H]1CCOC1)c1ccc(Cl)cc1)C1(F)CCN(C)CC1` (single isomer, unassigned) [Example 571], in that order: 0.023 µM, 0.0085 µM and 17 µM.
In the case of `CCC(O)(c1cc(F)c2c(c1)C(=O)N(Cc1ncc(Cl)cn1)[C@@]2(OC[C@@H](C)O)c1ccc(Cl)cc1)C1(F)CCN(C)CC1` (single isomer, unassigned) [Example 572], the IC50 with SJSA-1 (setting [6]) is 0.022 µM; in assay [1] (setting [5]), 18 µM.
On to `CCC(O)(c1cc(F)c2c(c1)C(=O)N(Cc1ncc(C#N)cn1)[C@@]2(OCC1(C#N)CC1)c1ccc(Cl)cc1)C1(F)CCN(C)CC1` (single isomer, unassigned) [Example 574], for which the IC50 was 0.021 µM in assay [3] (setting [4]), 0.016 µM in the assay on SJSA-1 (setting [6]) and 17 µM in assay [1] (setting [5]).
Turning to `CCC(O)(c1cc(F)c2c(c1)C(=O)N(Cc1ncc(C#N)cn1)[C@@]2(OC)c1ccc(Cl)cc1)C1(F)CCN(C)CC1` (single isomer, unassigned) [Example 575], the values for the IC50 (in assay [3] (setting [4]); in the assay with SJSA-1 (setting [6]); in assay [1] (setting [5])) were 0.028 µM, 0.066 µM and 21 µM, respectively.
Turning to `CO[C@]1(c2ccc(Cl)cc2)c2c(F)cc(C(C)(C)O)cc2C(=O)N1Cc1ccc(Cl)cn1` [Example 2, (3R)-3-(4-Chlorophenyl)-2-[(5-chloropyridin-2-yl)methyl]-4-fluoro-6-(2-hydroxypropan-2-yl)-3-methoxy-2,3-dihydro-1H-isoindol-1-one], the IC50 was 1.7 µM in assay [3] (read-out: SJSA-1 IC50 (Protocol A), SJSA-1 cells, SRB, 72 hrs) and 3.4 µM in the assay with SJSA-1 (Homo sapiens, SJSA-1, 72 h, read-out: SJSA1 IC50 (Protocol B), SJSA-1 cells, CellTiter-Glo, 72 hrs).
As to `CCC(O)(c1cc(F)c2c(c1)C(=O)N(Cc1ncc(C#N)cn1)[C@@]2(OCCO)c1ccc(Cl)cc1)[C@H]1CC[C@H](O)CC1` (stereo partly drawn) [Example 510, 2-{[(1R)-1-(4-chlorophenyl)-7-fluoro-5-{1-hydroxy-1-[trans-4-hydroxycyclohexyl]propyl}-1-(2-hydroxyethoxy)-3-oxo-2,3-dihydro-1H-isoindol-2-yl]methyl}pyrimidine-5-carbonitrile], the IC50 was found to be 0.084 µM in assay [3] (setting [4]) and 0.073 µM in the assay with SJSA-1 (setting [6]).
`[2H]C([2H])(O)C1(C([2H])([2H])O[C@]2(c3ccc(Cl)cc3)c3c(F)cc(C(C)(C)O)cc3C(=O)N2Cc2ncc(C#N)cn2)CC1` [Example 513, 2-{[(1R)-1-(4-chlorophenyl)-7-fluoro-1-({1-[hydroxydideuteromethyl]cyclo-propyl}dideuteromethoxy)-5-(2-hydroxypropan-2-yl)-3-oxo-2,3-dihydro-1H-isoindol-2-yl]methyl}pyrimidine-5-carbonitrile]: the IC50 worked out at 0.26 µM in assay [3] (setting [4]), 0.38 µM with SJSA-1 (setting [6]) and 3.1 nM in assay [2].
As for `CC[C@@](O)(c1cc(F)c2c(c1)C(=O)N(Cc1ncc(Cl)cn1)[C@@]2(OC)c1ccc(Cl)cc1)C1CCN(C2COC2)CC1` [Example 551, (3R)-3-(4-chlorophenyl)-2-[(5-chloropyrimidin-2-yl)methyl]-4-fluoro-6-[(1S)-1-hydroxy-1-[1-(oxetan-3-yl)piperidin-4-yl]propyl]-3-methoxy-2,3-dihydro-1H-isoindol-1-one], the IC50 in assay [3] (setting [4]) came out at 0.031 µM; in assay [1] (setting [5]), 36 µM.
Consider `CC[C@@](O)(c1cc(F)c2c(c1)C(=O)N(Cc1ncc(C#N)cn1)[C@@]2(O[C@H]1CCOC1)c1ccc(Cl)cc1)C1CCN(C)CC1` [Example 557, 2-{[(1R)-1-(4-chlorophenyl)-7-fluoro-5-[(1S)-1-hydroxy-1-(1-methylpiperidin-4-yl)propyl]-3-oxo-1-[(3S)-oxolan-3-yloxy]-2,3-dihydro-1H-isoindol-2-yl]methyl}pyrimidine-5-carbonitrile], for which the IC50 was 0.25 µM in assay [3] (setting [4]) and 0.037 µM in the assay on SJSA-1 (setting [6]).
